Results as given in publication PMC7317212 (Chemmedchem, 2020).
Like-named read-outs stand apart in the source and are kept apart here.

How the values were obtained:
mGAT1 = molecular target: T1, mGAT1 (Mus musculus, UniProt P31648); assay: MS Binding Assay with NO711 as native MS marker; settings: MS Binding Assay, NO711 marker; pKi±SEM; read-out: pK i mGAT1 (converted)
T1 construct: expressed in transfected cells; host or cells: HEK293
Method in brief: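 Competitive MS binding using membranes from HEK293 cells stably expressing mGAT1, with 10 nM unlabeled NO711 as marker and compounds at 7 concentrations. Nonspecific binding defined with 100 mM GABA. Bound NO711 eluted after filtration and quantified by LC-ESI-MS/MS against [2H10]NO711; Ki derived.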

mGAT4 = molecular target: T2, mGAT4 (Mus musculus, UniProt P31650); assay: GABA uptake inhibition at mGAT4 with varied preincubation time; assay type: cell-based
T2 construct: expressed in transfected cells; host or cells: HEK293
T2 sequence (P31650 1-627): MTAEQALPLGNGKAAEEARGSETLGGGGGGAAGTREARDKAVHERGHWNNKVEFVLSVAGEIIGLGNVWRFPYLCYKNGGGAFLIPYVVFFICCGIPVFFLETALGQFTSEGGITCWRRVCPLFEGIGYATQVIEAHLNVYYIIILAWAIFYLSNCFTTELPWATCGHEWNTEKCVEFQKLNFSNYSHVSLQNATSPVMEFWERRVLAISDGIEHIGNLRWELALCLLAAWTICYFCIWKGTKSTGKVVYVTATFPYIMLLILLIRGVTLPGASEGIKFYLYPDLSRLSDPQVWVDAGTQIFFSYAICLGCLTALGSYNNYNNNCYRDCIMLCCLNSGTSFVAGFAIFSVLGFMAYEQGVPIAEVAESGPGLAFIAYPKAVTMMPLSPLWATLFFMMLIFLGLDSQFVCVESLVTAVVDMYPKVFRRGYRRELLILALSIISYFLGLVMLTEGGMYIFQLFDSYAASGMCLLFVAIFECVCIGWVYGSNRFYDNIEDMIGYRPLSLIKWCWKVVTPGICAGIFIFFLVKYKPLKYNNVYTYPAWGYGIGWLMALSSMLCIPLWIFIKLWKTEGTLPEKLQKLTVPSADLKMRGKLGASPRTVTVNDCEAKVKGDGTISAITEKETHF

`COc1ccc(C(OCCN2CCCC(C(=O)O)C2)(c2ccc(C=O)cc2)c2ccc(OC)cc2)cc1` (racemic) [5 a, rac‐ 1‐{2‐[(4‐Formylphenyl)bis(4‐methoxyphenyl)methoxy]ethyl}piper‐idine‐3‐carboxylic acid] gave a Ki (mGAT1) of 38.9 µM, an IC50 (mGAT4; Experiment No. 1, preincubation time 10 min, read-out: pIC50 mGAT4 (converted)) of 1.35 µM and an IC50 (mGAT4; Experiment No. 1, preincubation time 25 min, read-out: pIC50 mGAT4 (converted)) of 1.05 µM. The IC50 (mGAT4; Experiment No. 1, preincubation time 60 min, read-out: pIC50 mGAT4 (converted)) was 0.912 µM, the IC50 (mGAT4; Experiment No. 2, preincubation time 10 min, read-out: pIC50 mGAT4 (converted)) was 2.69 µM and the IC50 (mGAT4; Experiment No. 2, preincubation time 25 min, read-out: pIC50 mGAT4 (converted)) was 1.86 µM. The IC50 (mGAT4; Experiment No. 2, preincubation time 60 min, read-out: pIC50 mGAT4 (converted)) was 1.23 µM, the IC50 (mGAT4; Experiment No. 3, preincubation time 10 min, read-out: pIC50 mGAT4 (converted)) was 2.69 µM and the IC50 (mGAT4; Experiment No. 3, preincubation time 25 min, read-out: pIC50 mGAT4 (converted)) was 1.48 µM. For the same compound, the IC50 (mGAT4; Experiment No. 3, preincubation time 60 min, read-out: pIC50 mGAT4 (converted)) was 1.66 µM, the IC50 (mGAT4; Experiment No. 4, preincubation time 25 min, read-out: pIC50 mGAT4 (converted)) was 2 µM and the IC50 (mGAT4; Experiment No. 4, preincubation time 60 min, read-out: pIC50 mGAT4 (converted)) was 0.617 µM. The IC50 (mGAT4; Experiment No. 5, preincubation time 25 min, read-out: pIC50 mGAT4 (converted)) was 1.58 µM, the IC50 (mGAT4; Experiment No. 5, preincubation time 60 min, read-out: pIC50 mGAT4 (converted)) was 1.26 µM and the IC50 (mGAT4; Experiment No. 6, preincubation time 25 min, read-out: pIC50 mGAT4 (converted)) was 1.38 µM. For the same compound, the IC50 (mGAT4; Experiment No. 6, preincubation time 60 min, read-out: pIC50 mGAT4 (converted)) was 1.02 µM, the “Normalized pIC50 mGAT4” value (mGAT4; preincubation time 10 min, experiments 1-3, relative to 25 min = 100.00) was 97.98 and the IC50 (mGAT4; preincubation time 10 min, experiments 1-3, read-out: Average pIC50 mGAT4 (converted)) was 2.14 µM. The “Normalized pIC50 mGAT4” value (mGAT4; preincubation time 25 min, experiments 1-3 (reference)) was 100.00, the IC50 (mGAT4; preincubation time 25 min, experiments 1-3, read-out: Average pIC50 mGAT4 (converted)) was 1.41 µM and the “Normalized pIC50 mGAT4” value (mGAT4; preincubation time 25 min, experiments 4-6 (reference)) was 100.00. For the same compound, the IC50 (mGAT4; preincubation time 25 min, experiments 4-6, read-out: Average pIC50 mGAT4 (converted)) was 1.62 µM, the “Normalized pIC50 mGAT4” value (mGAT4; preincubation time 60 min, experiments 1-3, relative to 25 min = 100.00) was 101.08 and the IC50 (mGAT4; preincubation time 60 min, experiments 1-3, read-out: Average pIC50 mGAT4 (converted)) was 1.23 µM. The “Normalized pIC50 mGAT4” value (mGAT4; preincubation time 60 min, experiments 4-6, relative to 25 min = 100.00) was 104.26 and the IC50 (mGAT4; preincubation time 60 min, experiments 4-6, read-out: Average pIC50 mGAT4 (converted)) was 0.933 µM.
